Holding throughout (experiment): biochemical
Common to all, as to parameters: Ubiquigent DUB profiler selectivity panel, remaining enzyme activity as % of control
Holding throughout (conditions): read-out: % of control remaining

One experiment has as its target T1, AMSH-LP (+Zinc) (Homo sapiens, UniProt Q96FJ0).
T1 construct: gene STAMBPL1; +Zinc
T1 sequence (Q96FJ0 1-436): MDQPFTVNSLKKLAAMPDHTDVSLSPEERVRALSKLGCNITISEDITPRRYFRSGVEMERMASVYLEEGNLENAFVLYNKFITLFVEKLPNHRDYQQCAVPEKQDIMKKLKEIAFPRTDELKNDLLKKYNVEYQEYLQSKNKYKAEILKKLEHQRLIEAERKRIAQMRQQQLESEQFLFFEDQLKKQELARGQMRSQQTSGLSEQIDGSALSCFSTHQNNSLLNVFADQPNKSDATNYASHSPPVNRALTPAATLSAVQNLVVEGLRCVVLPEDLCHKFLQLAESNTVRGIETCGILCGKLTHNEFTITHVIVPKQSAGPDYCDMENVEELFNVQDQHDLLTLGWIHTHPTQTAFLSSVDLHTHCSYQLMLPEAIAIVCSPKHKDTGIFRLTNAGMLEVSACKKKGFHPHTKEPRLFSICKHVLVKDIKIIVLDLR
The procedure, abridged: (§1)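 CMPD-39 selectivity was profiled at 1-100 μM across >40 DUBs. Cellular engagement used 2 h CMPD-39 pretreatment, then HA-Ub-PA probe for 10 min at 37°C, with USP30 band shift on immunoblot. TOMM20 ubiquitylation was blotted in YFP-PRKN hTERT-RPE1 cells after 1 h antimycin A/oligomycin A (1 μM each).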

Another experiment addresses T2, Cezanne (Homo sapiens, UniProt Q6GQQ9).
T2 construct: gene OTUD7B
T2 sequence (Q6GQQ9 1-843): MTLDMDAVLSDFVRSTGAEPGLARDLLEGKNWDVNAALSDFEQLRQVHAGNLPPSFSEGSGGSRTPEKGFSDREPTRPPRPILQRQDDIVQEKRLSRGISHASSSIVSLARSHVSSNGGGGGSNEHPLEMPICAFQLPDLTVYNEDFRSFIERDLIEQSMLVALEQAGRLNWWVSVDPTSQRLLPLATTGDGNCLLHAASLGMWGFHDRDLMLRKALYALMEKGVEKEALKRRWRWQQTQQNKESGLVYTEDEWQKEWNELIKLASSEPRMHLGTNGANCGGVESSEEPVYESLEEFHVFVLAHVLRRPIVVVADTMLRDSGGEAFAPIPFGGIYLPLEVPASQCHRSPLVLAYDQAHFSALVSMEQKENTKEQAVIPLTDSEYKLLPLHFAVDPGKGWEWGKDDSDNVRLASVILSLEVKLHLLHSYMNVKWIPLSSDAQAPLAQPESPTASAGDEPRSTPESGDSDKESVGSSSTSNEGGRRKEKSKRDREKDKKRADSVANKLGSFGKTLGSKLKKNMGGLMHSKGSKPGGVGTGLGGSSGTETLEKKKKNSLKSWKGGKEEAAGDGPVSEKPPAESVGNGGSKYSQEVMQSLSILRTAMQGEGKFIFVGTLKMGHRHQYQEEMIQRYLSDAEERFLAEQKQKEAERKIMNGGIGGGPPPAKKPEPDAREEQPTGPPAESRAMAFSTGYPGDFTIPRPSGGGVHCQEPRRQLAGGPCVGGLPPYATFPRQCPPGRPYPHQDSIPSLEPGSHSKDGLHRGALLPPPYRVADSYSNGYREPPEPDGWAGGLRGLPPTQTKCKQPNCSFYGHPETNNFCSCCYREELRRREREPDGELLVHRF
The procedure, abridged: as §1

The target in another experiment is USP11 (Homo sapiens, UniProt P51784). The method in brief:
as §1

USP11, sequence (P51784 whole entry): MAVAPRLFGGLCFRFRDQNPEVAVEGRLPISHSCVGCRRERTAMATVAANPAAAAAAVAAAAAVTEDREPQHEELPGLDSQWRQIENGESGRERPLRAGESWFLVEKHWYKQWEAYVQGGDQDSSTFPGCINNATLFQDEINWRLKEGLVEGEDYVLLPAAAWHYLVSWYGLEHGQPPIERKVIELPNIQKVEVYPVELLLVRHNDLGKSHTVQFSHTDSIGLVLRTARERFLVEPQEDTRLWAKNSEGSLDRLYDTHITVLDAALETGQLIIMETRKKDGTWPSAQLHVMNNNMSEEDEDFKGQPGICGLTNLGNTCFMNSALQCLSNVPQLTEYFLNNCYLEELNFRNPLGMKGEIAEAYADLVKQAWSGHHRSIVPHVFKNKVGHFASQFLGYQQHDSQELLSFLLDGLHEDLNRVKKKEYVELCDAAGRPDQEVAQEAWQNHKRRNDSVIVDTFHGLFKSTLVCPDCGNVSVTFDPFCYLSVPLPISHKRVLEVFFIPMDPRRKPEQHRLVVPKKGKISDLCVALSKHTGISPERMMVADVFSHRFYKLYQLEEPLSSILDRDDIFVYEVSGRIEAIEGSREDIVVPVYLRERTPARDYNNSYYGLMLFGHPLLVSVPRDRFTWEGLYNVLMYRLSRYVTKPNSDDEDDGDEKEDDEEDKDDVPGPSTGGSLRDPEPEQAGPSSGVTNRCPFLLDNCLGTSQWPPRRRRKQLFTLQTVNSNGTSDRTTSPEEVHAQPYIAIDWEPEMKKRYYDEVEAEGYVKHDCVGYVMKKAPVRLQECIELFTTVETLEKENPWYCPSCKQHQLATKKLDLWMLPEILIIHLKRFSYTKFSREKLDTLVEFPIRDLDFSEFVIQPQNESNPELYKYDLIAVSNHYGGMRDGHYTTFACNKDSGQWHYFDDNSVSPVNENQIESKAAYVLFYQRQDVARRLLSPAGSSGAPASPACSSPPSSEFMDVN

Turning to `CC(C)(C)NS(=O)(=O)c1ccc(NC(=O)[C@H](Cc2ccccc2)NC(=O)c2ccc(F)cc2)cc1` [compound 39, CMPD-39], at AMSH-LP (+Zinc), the remaining activity at 1 µM came out at 106%, the remaining activity at 10 µM was determined as 101% and the remaining activity at 100 µM came to 97.8%. Also, on Cezanne, the remaining activity at 1 µM was 98.7%, the remaining activity at 10 µM was 98.8% and the remaining activity at 100 µM amounted to 94.4%. Further, at USP11, the remaining activity at 1 µM worked out at 103%, the remaining activity at 10 µM amounted to 98.4% and the remaining activity at 100 µM is 97.2%.

The values above are taken from article PMC8645336, “Benchmarking a highly selective USP30 inhibitor for enhancement of mitophagy and pexophagy” (Life Science Alliance, 2021).
